IC50 data for 23 molecules are collected here from ChEMBL document CHEMBL5726860, “Phthalazinones and isoquinolinones as rock inhibitors” (2018).

In test [1] the target is Rho-associated protein kinase 2 (Homo sapiens, UniProt O75116). Description: (§1) In Vitro Assay: The effectiveness of compounds of the present invention as ROCK inhibitors can be determined in a 30 μL assay containing 20 mM HEPES, pH 7.5, 20 mM MgCl2, 0.015% Brij-35, 4 mM DTT, 5 μM ATP and 1.5 μM peptide substrate (FITC-AHA-[…]-OH). Compounds were dissolved in DMSO so that the final concentration of DMSO was <2%, and the reaction was initiated with Rho kinase variants. After incubation, the reaction was terminated by the addition of EDTA and the phosphorylated and non-phosphorylated peptides separated using a LABCHIP® 3000 Reader (Caliper Life Sciences). […] Compounds were tested in dose-response format, and the inhibition of kinase activity was calculated at each concentration of compound. The inhibition data were fit using a curve-fitting program to determine the IC50; i.e., the concentration of compound required to inhibit 50% of kinase activity.

The target in test [2] is Rho-associated protein kinase 1 (Homo sapiens, UniProt Q13464). The description is as §1.

Some results are limits rather than exact numbers.

Rho-associated protein kinase 2, sequence (O75116 whole entry, looked up, change not shown): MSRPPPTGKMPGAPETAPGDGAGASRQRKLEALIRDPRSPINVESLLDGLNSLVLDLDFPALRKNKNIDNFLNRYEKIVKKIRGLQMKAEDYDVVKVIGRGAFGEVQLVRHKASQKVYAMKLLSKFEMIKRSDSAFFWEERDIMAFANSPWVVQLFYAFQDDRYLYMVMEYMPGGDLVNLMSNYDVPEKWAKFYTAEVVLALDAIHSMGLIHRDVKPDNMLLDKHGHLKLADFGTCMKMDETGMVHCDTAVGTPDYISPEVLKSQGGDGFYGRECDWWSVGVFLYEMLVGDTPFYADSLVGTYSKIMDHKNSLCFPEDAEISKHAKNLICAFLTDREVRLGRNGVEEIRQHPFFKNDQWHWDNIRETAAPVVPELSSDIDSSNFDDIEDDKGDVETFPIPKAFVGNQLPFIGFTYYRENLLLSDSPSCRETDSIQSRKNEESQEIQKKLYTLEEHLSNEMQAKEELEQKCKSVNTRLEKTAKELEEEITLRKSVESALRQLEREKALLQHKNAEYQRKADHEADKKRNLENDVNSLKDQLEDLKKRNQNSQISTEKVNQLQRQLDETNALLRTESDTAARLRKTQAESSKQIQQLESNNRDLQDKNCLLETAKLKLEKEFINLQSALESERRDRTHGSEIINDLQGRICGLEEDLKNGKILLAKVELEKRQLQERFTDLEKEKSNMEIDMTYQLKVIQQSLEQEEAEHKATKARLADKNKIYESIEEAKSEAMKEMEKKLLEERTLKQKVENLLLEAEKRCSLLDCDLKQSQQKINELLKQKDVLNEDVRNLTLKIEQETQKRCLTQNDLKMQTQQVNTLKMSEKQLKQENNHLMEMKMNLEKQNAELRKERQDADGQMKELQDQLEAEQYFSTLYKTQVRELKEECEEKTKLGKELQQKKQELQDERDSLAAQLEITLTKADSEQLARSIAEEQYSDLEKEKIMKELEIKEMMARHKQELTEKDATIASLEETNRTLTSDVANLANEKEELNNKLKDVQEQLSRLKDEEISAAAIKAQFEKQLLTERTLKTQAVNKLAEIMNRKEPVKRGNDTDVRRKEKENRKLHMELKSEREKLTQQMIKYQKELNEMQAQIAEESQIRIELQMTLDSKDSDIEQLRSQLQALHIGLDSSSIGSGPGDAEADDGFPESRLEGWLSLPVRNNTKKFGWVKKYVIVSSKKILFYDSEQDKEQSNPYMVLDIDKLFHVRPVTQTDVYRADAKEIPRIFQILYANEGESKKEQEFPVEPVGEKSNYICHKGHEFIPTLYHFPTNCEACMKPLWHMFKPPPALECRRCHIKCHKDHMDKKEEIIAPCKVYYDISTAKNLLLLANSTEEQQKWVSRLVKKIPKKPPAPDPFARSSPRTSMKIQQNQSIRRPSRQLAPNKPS
Rho-associated protein kinase 1, sequence (Q13464 2-1354 limits assumed, change not shown): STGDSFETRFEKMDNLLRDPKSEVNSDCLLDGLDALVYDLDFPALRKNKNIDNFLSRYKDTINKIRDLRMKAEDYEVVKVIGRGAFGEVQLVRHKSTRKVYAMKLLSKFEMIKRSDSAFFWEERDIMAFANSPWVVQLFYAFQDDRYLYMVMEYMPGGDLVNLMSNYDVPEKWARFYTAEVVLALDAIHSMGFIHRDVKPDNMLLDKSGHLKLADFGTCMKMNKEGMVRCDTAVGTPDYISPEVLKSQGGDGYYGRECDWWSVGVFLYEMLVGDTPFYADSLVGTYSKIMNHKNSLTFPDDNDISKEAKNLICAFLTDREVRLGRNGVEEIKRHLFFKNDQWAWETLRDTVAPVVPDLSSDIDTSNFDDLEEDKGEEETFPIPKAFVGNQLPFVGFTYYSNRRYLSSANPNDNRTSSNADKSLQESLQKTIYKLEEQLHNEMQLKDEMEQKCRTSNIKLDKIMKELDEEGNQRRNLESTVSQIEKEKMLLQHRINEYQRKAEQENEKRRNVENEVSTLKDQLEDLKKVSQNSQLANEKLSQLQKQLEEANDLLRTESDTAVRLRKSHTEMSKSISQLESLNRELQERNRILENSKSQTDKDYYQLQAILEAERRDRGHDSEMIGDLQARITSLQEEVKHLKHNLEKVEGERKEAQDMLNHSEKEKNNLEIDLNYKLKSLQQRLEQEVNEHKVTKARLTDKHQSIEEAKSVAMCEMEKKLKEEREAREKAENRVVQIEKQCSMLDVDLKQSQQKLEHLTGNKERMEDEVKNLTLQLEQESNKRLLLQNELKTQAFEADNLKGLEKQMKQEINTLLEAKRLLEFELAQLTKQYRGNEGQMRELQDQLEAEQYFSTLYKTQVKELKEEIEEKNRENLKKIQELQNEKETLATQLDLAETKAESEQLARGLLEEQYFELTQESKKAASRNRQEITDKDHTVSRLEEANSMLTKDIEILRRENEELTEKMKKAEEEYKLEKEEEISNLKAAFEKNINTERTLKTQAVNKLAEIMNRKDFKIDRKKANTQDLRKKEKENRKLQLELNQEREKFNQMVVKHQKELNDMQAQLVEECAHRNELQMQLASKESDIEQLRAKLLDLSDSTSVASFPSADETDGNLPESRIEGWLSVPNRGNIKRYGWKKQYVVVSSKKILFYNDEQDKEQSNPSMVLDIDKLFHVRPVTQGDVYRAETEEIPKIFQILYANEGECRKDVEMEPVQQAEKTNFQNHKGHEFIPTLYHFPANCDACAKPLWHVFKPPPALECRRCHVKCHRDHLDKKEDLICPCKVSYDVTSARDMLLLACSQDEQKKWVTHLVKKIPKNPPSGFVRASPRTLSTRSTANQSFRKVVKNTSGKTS

A word on the IC50: it is the concentration needed to halve the response being measured. Take `CC(O)Cn1cc(C(=O)Nc2ccc(-c3n[nH]c(=O)c4ccccc34)cc2)cn1` (stereo not drawn): the IC50 in test [1] is < 100 nM.

Regarding `O=C(Nc1ccc(-c2n[nH]c(=O)c3ccccc23)cc1)c1cnn(C2CCCC2)c1`, the IC50 in test [1] is < 100 nM.

For `O=C(Nc1ccc(-c2n[nH]c(=O)c3ccccc23)cc1)c1cnn(CC(F)(F)F)c1`, the IC50 in test [1] is < 100 nM.

With `O=C(Nc1ccc(-c2n[nH]c(=O)c3ccccc23)cc1)c1cn2ccnc(Cl)c2n1`, the IC50 in test [1] is < 100 nM.

On to `O=C(Oc1ccc(-c2n[nH]c(=O)c3ccccc23)cc1)N1Cc2ccccc2C1`, for which, in test [2], the half-maximal inhibitory concentration (IC50) entry is “in the range around 550 nM”.

`CCc1c(C(=O)Nc2ccc(-c3n[nH]c(=O)c4ccccc34)cc2)nnn1-c1cccc(Cl)c1`: the concentration for half-maximal inhibition (IC50) in test [1] is < 100 nM.

For the molecule `CCCn1cc(C(=O)Nc2ccc(-c3n[nH]c(=O)c4ccccc34)cc2)cn1`, the 50% inhibitory concentration (IC50) in test [1] is < 100 nM.

Take `O=C(Nc1ccc(-c2n[nH]c(=O)c3ccccc23)cc1)c1cnn(C2CCCCC2)c1`: in test [1], the IC50 was < 100 nM.

Regarding `O=C(Nc1ccc(-c2n[nH]c(=O)c3ccccc23)cc1)c1cnn2ccc(OCCO)cc12`, in test [1], the concentration for half-maximal inhibition (IC50) was < 100 nM.

In the case of `O=C(Nc1ccc(-c2n[nH]c(=O)c3ccccc23)cc1)c1cnn(CC2CC2)c1`, the IC50 in test [1] was < 100 nM.

For the molecule `O=C(Cc1ccc(-c2c[nH]c(=O)c3ccccc23)c(F)c1)N1Cc2ccccc2C1`, the IC50 in test [1] is < 100 nM.

Regarding `O=C(Nc1ccc(-c2n[nH]c(=O)c3ccccc23)cc1)c1cnn(C2CCS(=O)(=O)C2)c1` (stereo not drawn), the IC50 in test [1] was < 100 nM.

Consider `O=C(Nc1ccc(-c2n[nH]c(=O)c3ccccc23)cc1)c1cc2ncccn2n1`, for which, in test [1], the concentration for half-maximal inhibition (IC50) is < 100 nM.

Turning to `O=C(Nc1ccc(-c2n[nH]c(=O)c3ccccc23)cc1)c1c[nH]c2ncc(F)cc12`, in test [1], the IC50 is < 100 nM.

In the case of `O=C(Nc1ccc(-c2n[nH]c(=O)c3ccccc23)cc1)c1cn[nH]c1`, in test [1], the IC50 was < 100 nM.

Regarding `O=C(Nc1ccc(-c2n[nH]c(=O)c3ccccc23)c(CO)c1)c1nn(CCC2CCOCC2)c2ccccc12`, the IC50 in test [1] is < 100 nM.

For `O=C(Nc1ccc(-c2n[nH]c(=O)c3ccccc23)cc1)c1cnn(CC(O)C(F)(F)F)c1` (stereo not drawn), the IC50 in test [1] is < 100 nM.

As for `O=C(Nc1ccc(-c2c[nH]c(=O)c3ccccc23)cc1)c1ccc(N2CCOCC2)cc1`, in test [1], the 50% inhibitory concentration (IC50) is < 100 nM.

`Cc1ccc2oc(Nc3ccc(-c4n[nH]c(=O)c5ccccc45)cc3)nc2c1`: the concentration for half-maximal inhibition (IC50) in test [1] is < 100 nM.

As to `O=C(Nc1ccc(-c2n[nH]c(=O)c3ccccc23)cc1)c1cnn(CC(F)(F)C(F)F)c1`, the IC50 in test [1] is < 100 nM.

For the molecule `O=C(Nc1ccc(-c2n[nH]c(=O)c3ccccc23)c(Cl)c1)c1nn(CC2CNC2)c2ccccc12`, the IC50 in test [1] was < 100 nM.

Consider `O=c1[nH]nc(-c2ccc(Nc3nnc(-c4ccccc4)s3)cc2)c2ccccc12`, for which the IC50 in test [1] is < 100 nM.

Turning to `O=C(Nc1ccc(-c2n[nH]c(=O)c3ccccc23)cc1)c1nn(CC2CCNCC2)c2ccccc12`, in test [1], the IC50 is < 100 nM.
